From US20250296953A1, “3,4-THIAZOLO-STEROIDS AND METHODS OF MAKING AND USING THE SAME” (Arkansas State University - Jonesboro, priority 2018, published 2025)
Read-outs that look alike come from different tables or passages of the source.

Experiments:
[1] = tested on: 60 different human tumor cell lines; conditions: for CC50: read-out: LC50
SK-MEL-28 = test: Melanoma cytotoxicity assay (resazurin); assay type: cell-based; conditions: SK-MEL-28 melanoma cells, resazurin
Procedure, shortened: (§1)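 About 4000 cells per well were seeded and held 24 h at 37° C, 5% CO2, then exposed to compounds in triplicate for 24 h. Resazurin was added for 6 h and fluorescence read at 544/590 nm; IC50 came from sigmoidal fits of viability versus concentration.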

SK-MEL-5 = test: Melanoma cytotoxicity assay (resazurin); assay type: cell-based; conditions: SK-MEL-5 melanoma cells, 24 hours with compound, resazurin; concentration not given
Procedure, shortened: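 Readout: resazurin fluorescence (ex 544, em 590 nm) after 6 h dye incubation, following 24 h compound exposure of ~4000 cells/well. Viability = background-subtracted signal over DMSO wells; IC50 by sigmoidal curve fitting.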

LOX IMVI = test: Melanoma cytotoxicity assay (resazurin); assay type: cell-based; conditions: LOX IMVI melanoma cells, resazurin
Procedure, shortened: as §1

SK-MEL-25 = test: Melanoma cytotoxicity assay (resazurin); assay type: cell-based; conditions: SK-MEL-25 melanoma cells, resazurin
Procedure, shortened: as §1

glioblastoma (SF-295) = test: NCI 60 five dose screen
[2] = SK-MEL-28 (Melanoma), five dose
[3] = SK-OV-3 (Ovarian Cancer), five dose
[4] = SN12C (Renal Cancer), five dose
[5] = SW-620 (Colon Cancer), five dose
[6] = T-47D (Breast Cancer), five dose
[7] = TK-10 (Renal Cancer), five dose
[8] = UO-31 (Renal Cancer), five dose
[9] = 24 hours with compound, concentration not given

Substance: (1S,2R,13R,14S,18S)-7-(3-fluoroanilino)-2,18-dimethyl-6-thia-8-azapentacyclo[11.7.0.02,10.05,9.014,18]icosa-5(9),7,10-trien-17-one [IIa.8]
- GI50 [1, 2]: 1520 nM
- TGI [1, 2]: 4.27E−6
- GI50 [1, 3]: 2330 nM
- TGI [1, 3]: 6.10E−6
- GI50 [1, 4]: 2360 nM
- TGI [1, 4]: 6.02E−6
- GI50 ([1]; SNB-19 (CNS Cancer), five dose): 2330 nM
- TGI ([1]; SNB-19 (CNS Cancer), five dose): 5.69E−6
- GI50 ([1]; SNB-75 (CNS Cancer), five dose): 1520 nM
- TGI ([1]; SNB-75 (CNS Cancer), five dose): 4.94E−6
- GI50 [1, 5]: 2330 nM
- TGI [1, 5]: 4.99E−6
- GI50 [1, 6]: 2220 nM
- TGI [1, 6]: 6.95E−6
- GI50 [1, 7]: 1970 nM
- TGI [1, 7]: 4.15E−6
- GI50 ([1]; U251 (CNS Cancer), five dose): 1590 nM
- TGI ([1]; U251 (CNS Cancer), five dose): 3.68E−6
- GI50 ([1]; UACC-62 (Melanoma), five dose): 1540 nM
- TGI ([1]; UACC-62 (Melanoma), five dose): 3.12E−6
- GI50 ([1]; UACC-257 (Melanoma), five dose): 5470 nM
- TGI ([1]; UACC-257 (Melanoma), five dose): 6.45E−5
- GI50 [1, 8]: 1670 nM
- TGI [1, 8]: 3.59E−6
- GI50 ([1]; four of six central nervous system (CNS) cell lines): < 2000 nM
- CC50 ([1]; 786-0 (Renal Cancer), five dose): 5.61 µM
- CC50 ([1]; A498 (Renal Cancer), five dose): > 100 µM
- CC50 ([1]; A549/ATCC (Non-small Cell Lung Cancer), five dose): > 100 µM
- CC50 ([1]; ACHN (Renal Cancer), five dose): 5.92 µM
- CC50 ([1]; BT-549 (Breast Cancer), five dose): 8.49 µM
- CC50 ([1]; CAKI-1 (Renal Cancer), five dose): 38.1 µM
- CC50 ([1]; CCRF-CEM (Leukemia), five dose): > 100 µM
- CC50 ([1]; COLO 205 (Colon Cancer), five dose): 24.4 µM
- CC50 ([1]; DU-145 (Prostate Cancer), five dose): 27.4 µM
- CC50 ([1]; EKVX (Non-small Cell Lung Cancer), five dose): > 100 µM
- CC50 ([1]; HCC-2998 (Colon Cancer), five dose): 88 µM
- CC50 ([1]; HCT-15 (Colon Cancer), five dose): 14.7 µM
- CC50 ([1]; HCT-116 (Colon Cancer), five dose): 6.58 µM
- CC50 ([1]; HL-60(TB) (Leukemia), five dose): > 100 µM
- CC50 ([1]; HOP-62 (Non-small Cell Lung Cancer), five dose): 24.5 µM
- CC50 ([1]; HOP-92 (Non-small Cell Lung Cancer), five dose): 7.73 µM
- CC50 ([1]; HT29 (Colon Cancer), five dose): 8.28 µM
- CC50 ([1]; IGROV1 (Ovarian Cancer), five dose): 7.76 µM
- CC50 ([1]; K-562 (Leukemia), five dose): > 100 µM
- CC50 ([1]; KM12 (Colon Cancer), five dose): 79.2 µM
- CC50 ([1]; LOX IMVI (Melanoma), five dose): 6.16 µM
- CC50 ([1]; M14 (Melanoma), five dose): 81.4 µM
- CC50 ([1]; MALME-3M (Melanoma), five dose): 26.7 µM
- CC50 ([1]; MCF7 (Breast Cancer), five dose): 7.87 µM
- CC50 ([1]; MDA-MB-231/ATCC (Breast Cancer), five dose): 9.99 µM
- CC50 ([1]; MDA-MB-435 (Melanoma), five dose): > 100 µM
- CC50 ([1]; MOLT-4 (Leukemia), five dose): > 100 µM
- CC50 ([1]; NCI-H23 (Non-small Cell Lung Cancer), five dose): 77.7 µM
- CC50 ([1]; NCI-H226 (Non-small Cell Lung Cancer), five dose): 81.5 µM
- CC50 ([1]; NCI-H460 (Non-small Cell Lung Cancer), five dose): > 100 µM
- CC50 ([1]; NCI-H522 (Non-small Cell Lung Cancer), five dose): 5.75 µM
- CC50 ([1]; NCI/ADR-RES (Ovarian Cancer), five dose): > 100 µM
- CC50 ([1]; OVCAR-3 (Ovarian Cancer), five dose): 6.34 µM
- CC50 ([1]; OVCAR-4 (Ovarian Cancer), five dose): > 100 µM
- CC50 ([1]; OVCAR-5 (Ovarian Cancer), five dose): > 100 µM
- CC50 ([1]; OVCAR-8 (Ovarian Cancer), five dose): 68.7 µM
- CC50 ([1]; PC-3 (Prostate Cancer), five dose): 7.94 µM
- CC50 ([1]; RXF 393 (Renal Cancer), five dose): 7.31 µM
- CC50 ([1]; SF-268 (CNS Cancer), five dose): > 100 µM
- CC50 ([1]; SK-MEL-2 (Melanoma), five dose): 26.7 µM
- CC50 ([1]; SK-MEL-5 (Melanoma), five dose): 9.24 µM
- CC50 [1, 3]: > 100 µM
- CC50 [1, 4]: 36 µM
- CC50 ([1]; SNB-19 (CNS Cancer), five dose): 22.7 µM
- CC50 ([1]; SNB-75 (CNS Cancer), five dose): > 100 µM
- CC50 [1, 5]: > 100 µM
- CC50 [1, 6]: > 100 µM
- CC50 [1, 7]: 8.72 µM
- CC50 ([1]; U251 (CNS Cancer), five dose): 8.51 µM
- CC50 ([1]; UACC-62 (Melanoma), five dose): 6.31 µM
- CC50 ([1]; UACC-257 (Melanoma), five dose): > 100 µM
- CC50 [1, 8]: 7.69 µM
- SK-MEL-28 (% inhibition) (SK-MEL-28; [9]): 90%
- IC50 (SK-MEL-28; 24 hours): > 20 µM
- SK-MEL-5 (% inhibition) (SK-MEL-5): 84%
- LOX-IMVI (% inhibition) (LOX IMVI; [9]): 79%
- IC50 (LOX IMVI; 24 hours): > 20 µM
- SK-MEL-25 (% inhibition) (SK-MEL-25; [9]): 88%
- IC50 (SK-MEL-25; 24 hours, read-out: SK-MEL-25 (IC50)): 10 µM
- GI50 (glioblastoma (SF-295); SF-295 (CNS Cancer), five dose): 1190 nM
- TGI (glioblastoma (SF-295); SF-295 (CNS Cancer), five dose): 2.97E−6
- GI50 (glioblastoma (SF-295); glioblastoma SF-295): 1190 nM
- CC50 (glioblastoma (SF-295); read-out: LC50, SF-295 (CNS Cancer), five dose): 7.37 µM
